Like-named read-outs stand apart in the source and are kept apart here.
What was measured:
[1] = test system: breast line MDA468; experiment: In vitro cell culture growth assay (MTS), MDA468; assay type: cell-based; details: Homo sapiens, 72 h, MDA468 cells, three days after drug treatment
Outline: (§1)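 Cells were plated and, one day later, treated with inhibitors. Three days after treatment, viable cell density was measured by MTS dye conversion, read as absorbance at 490 nm. Effects are expressed as percent of control growth versus vehicle-treated cells on the same plate.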

[2] = test system: prostate line LNCap; experiment: In vitro cell culture growth assay (MTS), LNCap; assay type: cell-based; details: Homo sapiens, LNCaP, 72 h, LNCap cells, three days after drug treatment
Outline: as §1

[3] = molecular target: T1, Human mTOR (FLAG-TOR) (Homo sapiens, UniProt P42345); experiment: Human mTOR kinase assay with purified enzyme, DELFIA format; assay type: biochemical
T1 construct: FLAG
Outline: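 DELFIA readout: Eu-anti-P(T389)-S6K antibody (40 ng/mL, 1 h) on captured His6-S6K from the stopped reaction. Kinase step used purified FLAG-tagged human mTOR with test compound in HEPES (pH 7.4)/MnCl2/DTT buffer, 2 h at room temperature (linear 1–6 h), terminated by EDTA/EGTA.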

[4] = molecular target: T2, PI3K (Homo sapiens, UniProt P42336); experiment: Fluorescence polarization assay for PI3K; assay type: biochemical; details: read-out: PI3 Kinase α IC50
T2 construct: PI3 Kinase α IC50; other: PI3 Kinase α; other: PI3 Kinase α isoform, fluorescence polarization
T2 sequence (P42336 whole entry, canonical isoform): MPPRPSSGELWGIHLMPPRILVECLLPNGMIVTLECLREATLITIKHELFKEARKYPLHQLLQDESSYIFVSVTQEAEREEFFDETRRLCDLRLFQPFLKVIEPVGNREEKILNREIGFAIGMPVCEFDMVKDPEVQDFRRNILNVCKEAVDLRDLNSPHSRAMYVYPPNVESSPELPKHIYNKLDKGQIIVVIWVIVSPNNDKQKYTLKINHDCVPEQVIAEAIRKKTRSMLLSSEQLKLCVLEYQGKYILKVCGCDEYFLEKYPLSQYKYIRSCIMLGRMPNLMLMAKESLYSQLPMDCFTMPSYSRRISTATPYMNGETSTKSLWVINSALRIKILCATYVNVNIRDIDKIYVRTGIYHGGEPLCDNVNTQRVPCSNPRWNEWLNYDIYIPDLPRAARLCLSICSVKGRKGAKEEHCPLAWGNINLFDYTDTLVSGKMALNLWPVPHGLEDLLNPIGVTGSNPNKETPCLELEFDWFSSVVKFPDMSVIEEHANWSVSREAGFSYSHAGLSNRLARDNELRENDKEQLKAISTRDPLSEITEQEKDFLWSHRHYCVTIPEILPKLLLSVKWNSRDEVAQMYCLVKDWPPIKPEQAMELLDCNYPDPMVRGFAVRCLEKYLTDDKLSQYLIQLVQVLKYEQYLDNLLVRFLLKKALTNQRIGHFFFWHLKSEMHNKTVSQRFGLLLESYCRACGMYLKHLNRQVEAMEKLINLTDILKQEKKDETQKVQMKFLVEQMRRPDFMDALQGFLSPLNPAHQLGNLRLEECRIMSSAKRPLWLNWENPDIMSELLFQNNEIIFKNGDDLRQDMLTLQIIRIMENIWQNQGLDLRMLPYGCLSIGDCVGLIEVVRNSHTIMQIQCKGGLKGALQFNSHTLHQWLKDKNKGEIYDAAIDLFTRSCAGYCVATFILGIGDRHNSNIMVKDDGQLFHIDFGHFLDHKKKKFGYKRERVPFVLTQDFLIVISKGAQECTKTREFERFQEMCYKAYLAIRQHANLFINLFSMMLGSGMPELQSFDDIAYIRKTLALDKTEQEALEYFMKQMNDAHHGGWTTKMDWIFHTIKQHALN
Outline: (§2)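 Fluorescence-polarization competition readout: after 30–60 min of PIP2/ATP turnover in 1% DMSO, a stop mix with GST-GRP (70 nM) and red probe (10 nM) was added.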

[5] = molecular target: T3, PI3K (Homo sapiens, UniProt P48736); experiment: Fluorescence polarization assay for PI3K; assay type: biochemical; details: read-out: PI3 Kinase γ IC50
T3 construct: PI3 Kinase γ IC50; other: PI3 Kinase γ; other: PI3 Kinase γ isoform, fluorescence polarization
T3 sequence (P48736 whole entry, canonical isoform): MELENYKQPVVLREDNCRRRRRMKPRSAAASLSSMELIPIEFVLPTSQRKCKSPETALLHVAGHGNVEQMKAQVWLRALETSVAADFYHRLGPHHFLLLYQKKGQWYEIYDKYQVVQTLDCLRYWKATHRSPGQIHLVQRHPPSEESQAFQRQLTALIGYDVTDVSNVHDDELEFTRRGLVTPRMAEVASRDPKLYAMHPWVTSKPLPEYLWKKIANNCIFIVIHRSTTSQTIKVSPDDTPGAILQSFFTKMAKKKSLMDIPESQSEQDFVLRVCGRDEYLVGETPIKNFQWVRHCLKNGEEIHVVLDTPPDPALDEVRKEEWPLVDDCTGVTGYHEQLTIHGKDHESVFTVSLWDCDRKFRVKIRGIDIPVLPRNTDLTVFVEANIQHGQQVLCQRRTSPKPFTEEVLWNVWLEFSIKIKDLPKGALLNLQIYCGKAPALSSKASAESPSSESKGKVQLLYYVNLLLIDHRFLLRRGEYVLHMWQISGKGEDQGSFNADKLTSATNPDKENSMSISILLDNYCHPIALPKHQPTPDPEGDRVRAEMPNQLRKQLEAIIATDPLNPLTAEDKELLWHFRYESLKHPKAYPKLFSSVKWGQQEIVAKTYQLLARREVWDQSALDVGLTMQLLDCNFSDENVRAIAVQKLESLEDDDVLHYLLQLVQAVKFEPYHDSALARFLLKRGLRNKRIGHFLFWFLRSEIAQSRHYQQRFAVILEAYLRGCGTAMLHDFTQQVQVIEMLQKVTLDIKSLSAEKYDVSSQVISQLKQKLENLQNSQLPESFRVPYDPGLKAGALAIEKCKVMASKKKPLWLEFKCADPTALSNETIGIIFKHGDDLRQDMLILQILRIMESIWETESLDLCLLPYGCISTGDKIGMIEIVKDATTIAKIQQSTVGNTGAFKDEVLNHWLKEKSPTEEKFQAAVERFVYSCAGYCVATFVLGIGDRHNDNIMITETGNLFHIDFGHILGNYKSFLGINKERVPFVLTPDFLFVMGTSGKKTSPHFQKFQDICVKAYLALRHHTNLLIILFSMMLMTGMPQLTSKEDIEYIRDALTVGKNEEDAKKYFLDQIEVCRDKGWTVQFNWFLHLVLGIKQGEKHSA
Outline: as §2

[6] = purified human mTOR enzyme, DELFIA format
[7] = PI3 Kinase α isoform, fluorescence polarization
[8] = PI3 Kinase γ isoform, fluorescence polarization

SMILES	IC50 [1]	IC50 [2]	IC50 [3]	IC50 ([4]; PI3 Kinase α)	IC50 ([5]; PI3 Kinase γ)	IC50 [3, 6]	IC50 [4, 7]	IC50 [5, 8]
CC(C)(C)n1ncc2c(N3CC4CCC(C3)O4)nc(-c3ccc(NC(=O)Nc4ccccc4)cc3)nc21 [Example 99]	0.28 µM	0.068 µM	0.0018 µM	0.13 µM	0.577 µM			
Cn1ncc2c(N3CC4CCC(C3)O4)nc(-c3ccc(NC(=O)Nc4ccc(N)cc4)cc3)nc21 [Example 234, 1-(4-aminophenyl)-3-{4-[1-methyl-4-(8-oxa-3-azabicyclo[3.2.1]oct-3-yl)-1H-pyrazolo[3,4-d]pyrimidin-6-yl]phenyl}urea]	0.011 µM	0.002 µM	0.000355 µM	0.162 µM	1.1 µM			
CCOC(=O)N1CCC(n2ncc3c(N4CC5CCC(C4)O5)nc(-c4ccc(NC(=O)Nc5ccccc5)cc4)nc32)CC1 [Example 33, ethyl 4-[4-(8-oxa-3-azabicyclo[3.2.1]oct-3-yl)-6-{4-[(phenylcarbamoyl)amino]phenyl}-1H-pyrazolo[3,4-d]pyrimidin-1-yl]piperidine-1-carboxylate]	0.018 µM	0.0009 µM	0.00036 µM	0.215 µM	4.28 µM			
CCn1ncc2c(N3CC4CCC(C3)O4)nc(-c3ccc(NC(=O)NC)cc3)nc21 [Example 40, 1-{4-[1-ethyl-4-(8-oxa-3-azabicyclo[3.2.1]oct-3-yl)-1H-pyrazolo[3,4-d]pyrimidin-6-yl]phenyl}-3-methylurea]	0.3 µM	0.07 µM	0.00058 µM	0.27 µM	> 10 µM			
CC(C)OC(=O)N1CCC(n2ncc3c(N4CC5CCC(C4)O5)nc(-c4ccc(N)cc4)nc32)CC1 [Example 65, isopropyl 4-[6-(4-aminophenyl)-4-(8-oxa-3-azabicyclo[3.2.1]oct-3-yl)-1H-pyrazolo[3,4-d]pyrimidin-1-yl]piperidine-1-carboxylate]	7 µM	1.2 µM	0.046 µM	4.63 µM	> 10 µM			
COC(=O)Nc1ccc(-c2nc(N3CC4CCC(C3)O4)c3cnn(C4CCC(O)CC4)c3n2)cc1 (centres unmarked) [Example 137, methyl {4-[1-(4-hydroxycyclohexyl)-4-(8-oxa-3-azabicyclo[3.2.1]oct-3-yl)-1H-pyrazolo[3,4-d]pyrimidin-6-yl]phenyl}carbamate]	1.7 µM	0.2 µM	0.00375 µM	6.66 µM	> 10 µM			
CN(C)CCCNC(=O)Nc1ccc(-c2nc(N3CC4CCC(C3)O4)c3cnn(C)c3n2)cc1 [Example 59, 1-[3-(dimethylamino)propyl]-3-{4-[1-methyl-4-(8-oxa-3-azabicyclo[3.2.1]oct-3-yl)-1H-pyrazolo[3,4-d]pyrimidin-6-yl]phenyl}urea]	8.8 µM	2.9 µM	0.1 µM	1.7 µM	> 10 µM			
CCNC(=O)Nc1ccc(-c2nc(N3CC4CCC(C3)O4)c3cnn(CC)c3n2)cc1 [Example 41, 1-ethyl-3-{4-[1-ethyl-4-(8-oxa-3-azabicyclo[3.2.1]oct-3-yl)-1H-pyrazolo[3,4-d]pyrimidin-6-yl]phenyl}urea]	0.08 µM	0.016 µM	0.00047 µM	1.25 µM	12 µM			
CNC(=O)Nc1ccc(-c2nc(N3CC4CCC(C3)O4)c3cnn(C(C)(C)C)c3n2)cc1 [Example 93]	0.17 µM	0.023 µM	0.00041 µM	0.202 µM	> 10 µM			
O=C(Nc1ccncc1)Nc1ccc(-c2nc(N3CC4CNCC(C3)O4)c3cnn(CC(F)(F)F)c3n2)cc1 [Example 337, 1-{4-[4-(9-oxa-3,7-diazabicyclo[3.3.1]non-3-yl)-1-(2,2,2-trifluoroethyl)-1H-pyrazolo[3,4-d]pyrimidin-6-yl]phenyl}-3-pyridin-4-ylurea]	1.9 µM	2.2 µM				0.0315 µM	1.79 µM	7.93 µM
CCNC(=O)Nc1ccc(-c2nc(N3CC4CCC(C3)O4)c3sc(CN4CCN(S(C)(=O)=O)CC4)cc3n2)cc1 [Example 430, 1-ethyl-3-{4-[6-{[4-(methylsulfonyl)piperazin-1-yl]methyl}-4-(8-oxa-3-azabicyclo[3.2.1]oct-3-yl)thieno[3,2-d]pyrimidin-2-yl]phenyl}urea]	0.09 µM	0.036 µM				0.00129 µM	0.113 µM	1.63 µM
O=C(Nc1ccc(-c2nc(N3CC4CCC(C3)O4)c3cnn(CC(F)(F)F)c3n2)cc1)Nc1cccnc1 [Example 4, 1-{4-[4-(8-oxa-3-azabicyclo[3.2.1]oct-3-yl)-1-(2,2,2-trifluoroethyl)-1H-pyrazolo[3,4-d]pyrimidin-6-yl]phenyl}-3-pyridin-3-ylurea]	< 0.027 µM	< 0.027 µM	0.00018 µM	0.345 µM	2.14 µM			
COC(=O)Nc1ccc(-c2nc(N3CC4CCC(C3)O4)c3cnn(C4CCC(=O)CC4)c3n2)cc1 [Example 136, methyl {4-[4-(8-oxa-3-azabicyclo[3.2.1]oct-3-yl)-1-(4-oxocyclohexyl)-1H-pyrazolo[3,4-d]pyrimidin-6-yl]phenyl}carbamate]	1.1 µM	0.04 µM	0.00625 µM	3.9 µM	> 10 µM			
O=C(NCCF)Nc1ccc(-c2nc(N3CC4CCC(C3)O4)c3sccc3n2)cc1 [Example 408, 1-(2-fluoroethyl)-3-{4-[4-(8-oxa-3-azabicyclo[3.2.1]oct-3-yl)thieno[3,2-d]pyrimidin-2-yl]phenyl}urea]	0.53 µM	0.087 µM				0.00061 µM	0.825 µM	> 10 µM
O=C(Nc1ccncc1)Nc1ccc(-c2nc(N3CC4CCC(C3)O4)c3cnn(C4CCC5(CCCO5)CC4)c3n2)cc1 (single isomer, unassigned) [Example 312, 1-(4-{4-(8-oxa-3-azabicyclo[3.2.1]oct-3-yl)-1-[(5r,8r)-1-oxaspiro[4.5]dec-8-yl]-1H-pyrazolo[3,4-d]pyrimidin-6-yl}phenyl)-3-pyridin-4-ylurea]	0.012 µM	0.001 µM				0.000203 µM	0.353 µM	2.22 µM
CCn1ncc2c(N3CC4CCC(C3)O4)nc(-c3ccc(NC(=O)Nc4ccc(C(=O)NN5CCCC5)cc4)cc3)nc21 [Example 290, 4-[({4-[1-ethyl-4-(8-oxa-3-azabicyclo[3.2.1]oct-3-yl)-1H-pyrazolo[3,4-d]pyrimidin-6-yl]phenyl}carbamoyl)amino]-N-pyrrolidin-1-ylbenzamide]	0.004 µM	< 0.001 µM	0.000175 µM	0.102 µM	0.757 µM			
O=C(Nc1ccc(CO)cc1)Nc1ccc(-c2nc(N3CC4CCC(C3)O4)c3cnn(CCO)c3n2)cc1 [Example 201, 1-{4-[1-(2-hydroxyethyl)-4-(8-oxa-3-azabicyclo[3.2.1]oct-3-yl)-1H-pyrazolo[3,4-d]pyrimidin-6-yl]phenyl}-3-[4-(hydroxymethyl)phenyl]urea]	0.012 µM	0.013 µM	0.000265 µM	0.05 µM	1.76 µM			
CC(C)(C)n1ncc2c(N3CC4CCC(C3)O4)nc(-c3ccc(NC(=O)NCCO)cc3)nc21 [Example 97]	0.18 µM	0.02 µM	0.00034 µM	0.282 µM	9.5 µM			
COC(=O)Nc1ccc(-c2nc(N3CC4CCC(C3)O4)c3cnn(CCO)c3n2)cc1 [Example 192, methyl {4-[1-(2-hydroxyethyl)-4-(8-oxa-3-azabicyclo[3.2.1]oct-3-yl)-1H-pyrazolo[3,4-d]pyrimidin-6-yl]phenyl}carbamate]	5 µM	1.02 µM	0.026 µM	2.1 µM	> 10 µM			
CCn1ncc2c(N3CC4CCC(C3)O4)nc(-c3ccc(NC(=O)Nc4ccc(N5CCOCC5)cc4)cc3)nc21 [Example 181, 1-{4-[1-ethyl-4-(8-oxa-3-azabicyclo[3.2.1]oct-3-yl)-1H-pyrazolo[3,4-d]pyrimidin-6-yl]phenyl}-3-(4-morpholin-4-ylphenyl)urea]	< 0.001 µM	< 0.001 µM	0.00018 µM	0.175 µM	3.67 µM			
CNC(=O)Nc1ccc(-c2nc(N3CC4CCC(C3)O4)c3cnn(C4CCC(NCCO)CC4)c3n2)cc1 (centres unmarked) [Example 334, 1-{4-[1-{4-[(2-hydroxyethyl)amino]cyclohexyl}-4-(8-oxa-3-azabicyclo[3.2.1]oct-3-yl)-1H-pyrazolo[3,4-d]pyrimidin-6-yl]phenyl}-3-methylurea]	5.2 µM	2.96 µM				0.0045 µM	0.434 µM	3.94 µM
CN(C)CCn1ncc2c(N3CC4CCC(C3)O4)nc(-c3ccc(NC(=O)Nc4ccccc4)cc3)nc21 [Example 156, 1-(4-{1-[2-(dimethylamino)ethyl]-4-(8-oxa-3-azabicyclo[3.2.1]oct-3-yl)-1H-pyrazolo[3,4-d]pyrimidin-6-yl}phenyl)-3-phenylurea]	0.068 µM	0.001 µM	0.00265 µM	0.16 µM	1.53 µM			

From US8129371B2, “Thienopyrimidine and pyrazolopyrimidine compounds and their use as mTOR kinase and PI3 kinase inhibitors” (Wyeth LLC, priority 2007, dated 2012)
